Assay results taken from patent publication US10336784B2, “Methods for modular synthesis of N-glycans and arrays thereof” (Academia Sinica, priority 2016, dated 2019).
Entries after “also recorded” stand apart in the source; their conditions may differ.

What was measured:
PGTs 141-144 = experiment: Glycan array on ACG slide, binding of PGTs 141-144; parameters: species or system human; details: panel of glycans I-XI
Method: To understand the exact glycan epitopes recognized by antibodies PGTs 141-145^20, a panel of glycans I-XI on the ACG slide was prepared for analysis.
b) Fabrication of aluminum oxide coated glass slide. The aluminum oxide glass substrate provides advantages for being able to be assessed by both mass spectrometry and fluorescence scanning. […] There are many reports describing the surface of micron to nano pore structures of anodized aluminum oxide. However, only a few articles have mentioned the initial planar layer of aluminum oxide16 during the treatment of surface anodization. In the development of AAO glass substrate, a computer experimental design program (Design Expert 8.0) has been used to optimize the planar layer of surface anodized aluminum oxide to be best used in glycan microarray 17.
Antibodies PG9, PG16 and PGTs 141-145 were diluted by binding buffer to 100 μg/mL prior to use. DyLight649-conjugated Donkey Anti-Human IgG antibody was then pre-complexed with primary antibodies. The final concentration of the precomplexed solution was adjusted to 50 μg/mL with binding buffer. […]
(§1) The slide was scanned at 635 nm with a microarray fluorescence chip reader (GenePix® 4300A, Molecular Devices Corporation). Scanned images were analyzed with GenePix Pro 6.0 analysis software (Molecular Devices Corporation,). […] The intensities was calculated and averaged. […]

PG16 [1] = experiment: Glycan microarray on NHS-coated glass slide, binding of PG16; parameters: species or system human; details: NHS-activated glass slide, glycans printed at 100 μM
Method: To gain insights into the glycan specificities of these antibodies, the inventors used our newly developed array to profile the ligands of HIV-1 bNAbs. The synthetic N-glycan ligands were printed on NHS-activated glass slides through amide bond formation with 100 μM each of glycans 1-33 (FIG. 198). Each sample was printed with five replicates and slide images were obtained from a fluorescence scan after incubation with DyLight649-conjugated donkey anti-Human IgG antibody. […] Furthermore, PG9 and PGTs 141-145 were not detected to bind any of the glycans on the NHS array, probably due to their extremely weak binding. (FIGS. 203, 204A, 204B, 204C, 205A, 205B and 206).
a) Fabrication of N-hydroxy succinimide-coated glass slide: All monovalent glycans (G1-33) were prepared in 10 mM concentration individually and served as mother solutions which are to be diluted with printing buffer to prepare a working solution. […]
as §1

PG16 [2] = experiment: Glycan array on aluminium oxide-coated glass (ACG) slide, homo- and mixed glycans, binding of PG16; details: 100 μM glycan or mixtures of IV and XI
Source text: (§2) To further understand why glycan binding to these bNAbs was not readily observed on the NHS-coated glass slides, the inventors conducted a specificity test with the ACG array. […] Therefore, the inventors can simply adjust the concentration of glycan to control the density and distance of glycans on the ACG surface. To prepare a representative ACG array, glycans I-XI (FIG. 5a) were linked to a phosphonic acid tail for spontaneous covalent immobilization on the ACG slide (Supplementary Scheme S21, as shown in FIG. 129). After incubation with a secondary antibody, the inventors determined the dissociation constant (KD.surf.)^59 of the glycans interacting with the antibody of interest. Using the ACG slide, the signal intensity was enhanced, as shown by the use of PG16 at 1 μg/mL on the ACG slide in comparison to 25 μg/mL used on the NHS-coated glass slide (FIG. 5b and Supplementary FIG. 199). […]
(§3) b) Fabrication of aluminum oxide coated glass slide. The aluminum oxide glass substrate provides advantages for being able to be assessed by both mass spectrometry and fluorescence scanning. […]
as §1

PG16 [3] = experiment: Determination of surface dissociation constants (KD,surf) on ACG slide; assay type: binding, human
Source text: as §2, with “interest.” for “interest. Using the ACG slide, the signal intensity was enhanced, as shown by the use of PG16 at 1 μg/mL on the ACG slide in comparison to 25 μg/mL used on the NHS-coated glass slide (FIG. 5b and Supplementary FIG. 199).”
as §3
The aluminum oxide coated glass slides for the determination of dissociation constants were spotted with 100 and 50 μM concentrations of glycans Man5GlcNAc2 (V), hybrid type (XI), bi-antennary complex type (XII), V+XI (1:1 mole ratio), V+XII, and XI+XII. […] Finally, slides were washed with PBST, spin dried and scanned at 450 nm with a microarray fluorescence chip reader. Scanned images were analyzed with GenePix Pro 6.0 analysis software. […]

PG9 = experiment: Glycan array on aluminium oxide-coated glass (ACG) slide, homo- and mixed glycans, binding of PG9; details: homogeneous array of glycans I-XI
Source text: To evaluate whether the ACG array format could enhance the detection sensitivity, the inventors performed a ligand specificity profiling at various concentrations of PG9. […] Previously, it was shown that PG9 required Man5GlcNAc2 at primary (Asn160) and secondary (Asn156 or Asn173) binding sites together with a short peptide strand in gp120 recognition^26, whereas the composition of glycan at Asn156 or Asn173 was defined as a complex-type glycan in later studies^30,31. In the present study, the strong PG9 interaction with the hybrid-type structure compared to both Man5GlcNAc2 and complex-type glycans indicated the presence of a hybrid-type glycan or an oligomannose and a complex-type glycan in close proximity as ligand(s).
To evaluate the glycan combination at Asn160 and Asn156/Asn173 of gp120 that best fits into the PG9 binding pocket, the inventors printed two different mixed-glycan arrays. […]
as §3, §1

CC(=O)N[C@H]1[C@H](O[C@H]2[C@H](O)[C@@H](NC(C)=O)C(O)O[C@@H]2CO)O[C@H](CO)[C@@H](O[C@@H]2O[C@H](CO[C@H]3O[C@H](CO[C@H]4O[C@H](CO)[C@@H](O)[C@H](O)[C@@H]4O[C@H]4O[C@H](CO)[C@@H](O)[C@H](O)[C@@H]4O)[C@@H](O)[C@H](O[C@H]4O[C@H](CO)[C@@H](O)[C@H](O)[C@@H]4O[C@H]4O[C@H](CO)[C@@H](O)[C@H](O)[C@@H]4O)[C@@H]3O)[C@@H](O)[C@H](O[C@H]3O[C@H](CO)[C@@H](O)[C@H](O)[C@@H]3O[C@H]3O[C@H](CO)[C@@H](O)[C@H](O)[C@@H]3O[C@H]3O[C@H](CO)[C@@H](O)[C@H](O)[C@@H]3O)[C@@H]2O)[C@@H]1O (stereo partly shown) [Man9GlcNAc2]
binding of PGTs 141-144 (PGTs 141-144): significant decrease in the affinity

5-Aminopentyl-di-[5-Acetamido-3,5-dideoxy-D-glycero-α-D-galacto-2-nonulopyrano-sylonate-(2→6)-β-D-galactopyranosyl-(1→4)-2-acetamido-2-deoxy-β-D-glucopyranosyl-(1→2)-α-D-mannopyranosyl]-(1→3),(1→6)-β-D-mannopyranosyl-(1→4)-2-acetamido-2-deoxy-β-D-glucopyranosyl-(1→4)-(α-L-fucopyranosyl-(1→6)-2-acetamido-2-deoxy-β-D-glucopyranoside [glycan 19]
binding of PG16 (PG16 [1]): not affected by the presence of the core fucose

Man5GlcNAc2
binding of PG16 (PG16 [2]): unable to detect PG16 binding
binding of PG16 (PG16 [1]): could not observe binding
signal intensities for binding of PG16 (PG16 [3]; glycans spotted at 100 and 50 μM): too weak to determine the KD

CC(=O)NC1C(O)[C@H](O[C@@H]2OC(CO[C@]3(C(=O)O)CC(O)[C@@H](NC(C)=O)C([C@H](O)[C@H](O)CO)O3)[C@H](O)C(O)C2O)C(CO)O[C@H]1OC1C(O)[C@H](O)C(CO)O[C@@H]1OC1C(O)[C@H](O[C@@H]2C(CO)O[C@@H](O[C@@H]3C(CO)O[C@@H](OCCNC(=O)OCCOCCOCCP(=O)(O)O)C(NC(C)=O)C3O)C(NC(C)=O)C2O)OC(CO[C@H]2OC(CO[C@H]3OC(CO)[C@@H](O)C(O)C3O)[C@@H](O)C(O[C@H]3OC(CO)[C@@H](O)C(O)C3O)C2O)[C@H]1O (stereo partly shown) [X]
binding of PG9 to single glycans (PG9): apparent specificity; also recorded: significant enhancement in binding
Kd (PG16 [3]; read-out: KD (binding affinity of PG16)): 935 nM
